Data from US20210253562A1, “ACYLSUFONAMIDE COMPOUNDS USEFUL AS EP3 RECEPTOR ANTAGONISTS” (Janssen Pharmaceutica NV, priority 2018, published 2021).

Experiments:
[1] = target: T1, EP3 membrane (EP3 receptor) (Homo sapiens, UniProt P43115); assay: [3H]-PGE2 binding; EP3 competition binding (SPA)
T1 construct: purchased Millipore HTS092M
T1 sequence (P43115 1-390): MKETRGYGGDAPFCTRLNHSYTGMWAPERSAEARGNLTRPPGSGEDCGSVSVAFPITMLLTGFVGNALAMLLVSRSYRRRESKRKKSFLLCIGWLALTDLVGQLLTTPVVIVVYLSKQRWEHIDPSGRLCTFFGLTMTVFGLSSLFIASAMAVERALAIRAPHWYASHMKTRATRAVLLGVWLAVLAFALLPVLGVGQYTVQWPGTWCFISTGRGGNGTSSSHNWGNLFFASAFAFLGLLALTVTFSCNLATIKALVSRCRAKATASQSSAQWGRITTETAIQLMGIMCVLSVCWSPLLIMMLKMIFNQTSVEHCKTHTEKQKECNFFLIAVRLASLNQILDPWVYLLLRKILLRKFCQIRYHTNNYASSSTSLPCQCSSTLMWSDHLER
Outline: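 Ki derived from one-site nonlinear regression of scintillation proximity counts after 2 h room-temperature equilibration. Serially diluted (1:3) compounds competed against [3H]-PGE2 (2 nM) for EP3 receptor membranes (2 μg/well) in pH 7.4 Tris buffer with 10 mM MgCl2, 1 mM EDTA, 0.1% DMSO.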

[2] = target: T2, CHO cells over-expressing the EP3 receptor (Homo sapiens, UniProt P43115); assay: CHO cell cAMP assay; EP3 cAMP antagonist dose response (sulprostone reference), HTRF; assay type: cell-based; details: sulprostone 700 nM (EC80) and FSK 2 μM (EC70); read-out: CHO_cAMP IC50
T2 construct: expressed in transfected cells; host or cells: CHO cells
T2 sequence (P43115 1-390): T1 sequence (P43115 1-390)
Description: Biological Example 2: CHO Cell cAMP Assay
This assay monitored the cAMP generation in CHO cells over-expressing the EP3 receptor in the presence or absence of antagonist stimulated with Forskolin (FSK, CAS No. 66428-89-5) and a known EP3 Agonist (sulprostone, CAS No. 60325-46-4). For detection, a homogeneous competitive immunoassay (Time Resolved Fluorescence Energy Transfer (hTR-FRET)) was used.
Cells (6K cells per well) were plated in Poly-D-Lysine coated plates the day before the assay was to be run and were incubated at 37° C. One hour before the assay the media was removed and replaced with assay buffer (500 mL HBSS (+Ca)+2.5 mL 1M HEPES+6.66 mL 7.5% BSA) (starved at 37° C.). At the start of the assay the buffer was removed from the cells and replaced with buffer containing test compound(s). Sulprostone at an EC80 dose (700 nM) and FSK at an EC70 dose (2 μM) were added to initiate the reaction (37° C. for 30 minutes).
FSK increases cAMP production and sulprostone decreases cAMP production produced by FSK. In this assay, EP3 antagonists will increase the cAMP to the level of cAMP generated by FSK alone.
The reaction was terminated with the addition of cAMP detection reagents (labeled cAMP and labeled cAMP antibody in lysis buffer (HTRF reagent, which utilizes a cryptate-labeled anti-cAMP and d2-labeled cAMP-d2 is an HTRF acceptor fluorophore)). Approximately one hour later the plates were read on an Envision (Perkin Elmer) in HTRF mode. Well results were calculated based on a ratio of counts at 665 nm and 615 nm (data output was a calculation of the ratio: (read @665 nm/read @ 615 nm)*1000. For test compounds dosed serially, well results were converted to nM cAMP using a cAMP standard run on each plate. nM cAMP from a set of wells dosed with test compound(s) were plotted. nM cAMP was calculated for each well from a standard curve located on each plate (P1-12 and P13-24) by first calculating the slope and deriving the intercept(b):
[formula] NScAMP_s tan dard_cruve=m(nM cAMP_s tan dard_curve)+b
NSP, NSN, NSsample were converted to nM cAMP using the following equation: […]
IC50 values were determined from a […] (Hill equation) of a single 11-point compound dosing. A best-fit curve was determined by the minimum sum of squares method plotting cAMP produced vs compound concentration.

Row | SMILES | Ki [1] [µM] | IC50 [2] [µM]
1 | O=C(C/C=C1\CCCc2cnn(Cc3ccc(Cl)cc3Cl)c21)NS(=O)(=O)c1cccs1 [Compound #20, (E)-3-(1-(2,4-dichlorobenzyl)-1,4,5,6-tetrahydro-7H-indazol-7-ylidene)-N-(thiophen-2-ylsulfonyl)propenamide] | 0.28 | 1
2 | O=C(C/C=C1\CCCc2cnn(Cc3ccc(Cl)cc3Cl)c21)NS(=O)(=O)c1nc2ccccc2s1 [Compound #21] | 0.058 | 0.33
3 | O=C(C/C=C1\CCCc2cnn(Cc3ccc(Cl)cc3Cl)c21)NS(=O)(=O)c1cnc2ccccc2c1 [Compound #22, (E)-3-(1-(2,4-dichlorobenzyl)-1,4,5,6-tetrahydro-7H-indazol-7-ylidene)-N-(quinolin-3-ylsulfonyl)propenamide] | 0.373 | 2.9
4 | COc1ccc(S(=O)(=O)NC(=O)C/C=C2\CCCc3cnn(Cc4ccc(Cl)cc4Cl)c32)cc1 [Compound #23, (E)-3-(1-(2,4-dichlorobenzyl)-1,4,5,6-tetrahydro-7H-indazol-7-ylidene)-N-((4-methoxyphenyl)sulfonyl)propenamide] | 0.256 | 0.453
5 | O=C(CC/C=C1\CCCc2cnn(Cc3ccc(Cl)cc3Cl)c21)NS(=O)(=O)c1ccc(Cl)cc1 [Compound #24, (E)-N-((4-chlorophenyl)sulfonyl)-4-(1-(2,4-dichlorobenzyl)-1,4,5,6-tetrahydro-7H-indazol-7-ylidene)butanamide] | 0.003 | 0.006
6 | O=C(C/C=C1\CCCc2cnn(Cc3ccc(Cl)cc3Cl)c21)NS(=O)(=O)c1cc2ccccc2s1 [Compound #25, (E)-N-(benzo[b]thiophen-2-ylsulfonyl)-3-(1-(2,4-dichlorobenzyl)-1,4,5,6-tetrahydro-7H-indazol-7-ylidene)propenamide] | 0.051 | 0.251
7 | O=C(C/C=C1\CCCc2cnn(Cc3ccc(Cl)cc3Cl)c21)NS(=O)(=O)c1cc2ccccc2o1 [Compound #26, (E)-N-(benzofuran-2-ylsulfonyl)-3-(1-(2,4-dichlorobenzyl)-1,4,5,6-tetrahydro-7H-indazol-7-ylidene)propenamide] | 0.085 | 0.699
8 | O=C(NC/C=C1\CCCc2cnn(Cc3ccc(Cl)cc3Cl)c21)NS(=O)(=O)c1cc2ccccc2s1 [Compound #27, (E)-N-((2-(1-(2,4-dichlorobenzyl)-1,4,5,6-tetrahydro-7H-indazol-7-ylidene)ethyl)carbamoyl)benzo[b]thiophene-2-sulfonamide] | 0.005 | 0.013
9 | O=C(NC/C=C1\CCCc2cnn(Cc3ccc(Cl)cc3Cl)c21)NS(=O)(=O)c1cc2ccccc2o1 [Compound #28, (E)-N-((2-(1-(2,4-dichlorobenzyl)-1,4,5,6-tetrahydro-7H-indazol-7-ylidene)ethyl)carbamoyl)benzofuran-2-sulfonamide] | 0.006 | 0.027
10 | O=C(CC/C=C1\CCCc2cnn(Cc3ccc(Cl)cc3Cl)c21)NS(=O)(=O)c1ccc(Cl)s1 [Compound #29, (E)-N-((5-chlorothiophen-2-yl)sulfonyl)-4-(1-(2,4-dichlorobenzyl)-1,4,5,6-tetrahydro-7H-indazol-7-ylidene)butanamide] | 0.001 | 0.002
11 | COc1ccc(S(=O)(=O)NC(=O)CC/C=C2\CCCc3cnn(Cc4ccc(Cl)cc4Cl)c32)cc1 [Compound #30, (E)-4-(1-(2,4-dichlorobenzyl)-1,4,5,6-tetrahydro-7H-indazol-7-ylidene)-N-((4-methoxyphenyl)sulfonyl)butanamide] | 0.026 | 0.035
12 | O=C(CC/C=C1\CCCc2cnn(Cc3ccc(Cl)cc3Cl)c21)NS(=O)(=O)c1cc2ccccc2s1 [Compound #31, (E)-N-(benzo[b]thiophen-2-ylsulfonyl)-4-(1-(2,4-dichlorobenzyl)-1,4,5,6-tetrahydro-7H-indazol-7-ylidene)butanamide] | 0.007 | 0.013
13 | O=C(NS(=O)(=O)c1ccc(Cl)cc1)OC/C=C1\CCCc2c(C(F)F)nn(Cc3ccc(Cl)cc3Cl)c21 [Compound #32, (E)-2-(1-(2,4-dichlorobenzyl)-3-(difluoromethyl)-1,4,5,6-tetrahydro-7H-indazol-7-ylidene)ethyl ((4-chlorophenyl)sulfonyl)carbamate] | 0.168 | 1.3

Now from value to molecule:

Row | Ki [1] [µM] | IC50 [2] [µM] | SMILES
14 | 0.006 | 0.009 | CN(C/C=C1\CCCc2cnn(Cc3ccc(Cl)cc3Cl)c21)C(=O)NS(=O)(=O)c1ccc(Cl)cc1 [Compound #33, (E)-4-chloro-N-((2-(1-(2,4-dichlorobenzyl)-1,4,5,6-tetrahydro-7H-indazol-7-ylidene)ethyl)(methyl)carbamoyl)benzenesulfonamide]
15 | 0.003 | 0.011 | O=C(NS(=O)(=O)c1cc(Cl)c(Cl)s1)OC/C(F)=C1\CCCc2cnn(Cc3ccc(Cl)cc3Cl)c21 [Compound #34, (Z)-2-(1-(2,4-dichlorobenzyl)-1,4,5,6-tetrahydro-7H-indazol-7-ylidene)-2-fluoroethyl ((4,5-dichlorothiophen-2-yl)sulfonyl)carbamate]
16 | 0.542 | 2.8 | O=C(NS(=O)(=O)c1cc(Cl)c(Cl)s1)OC/C(F)=C1/CCCc2cnn(Cc3ccc(Cl)cc3Cl)c21 [Compound #35, (E)-2-(1-(2,4-dichlorobenzyl)-1,4,5,6-tetrahydro-7H-indazol-7-ylidene)-2-fluoroethyl ((4,5-dichlorothiophen-2-yl)sulfonyl)carbamate]
17 | 0.108 | 0.087 | O=C(NS(=O)(=O)c1ccc(Cl)cc1)OC/C=C1\CC(F)(F)Cc2cnn(Cc3ccc(Cl)cc3Cl)c21 [Compound #37, (E)-2-(1-(2,4-dichlorobenzyl)-5,5-difluoro-1,4,5,6-tetrahydro-7H-indazol-7-ylidene)ethyl ((4-chlorophenyl)sulfonyl)carbamate]
18 | 0.003 | 0.007 | COc1ccc(Cl)cc1S(=O)(=O)NC(=O)CC/C=C1\CCCc2cnn(Cc3ccc(Cl)cc3Cl)c21 [Compound #38, (E)-N-((5-chloro-2-methoxyphenyl)sulfonyl)-4-(1-(2,4-dichlorobenzyl)-1,4,5,6-tetrahydro-7H-indazol-7-ylidene)butanamide]
19 | 0.062 | 0.114 | COc1ccccc1S(=O)(=O)NC(=O)NC/C=C1\CCCc2cnn(Cc3ccc(Cl)cc3Cl)c21 [Compound #39, (E)-N-((2-(1-(2,4-dichlorobenzyl)-1,4,5,6-tetrahydro-7H-indazol-7-ylidene)ethyl)carbamoyl)-2-methoxybenzenesulfonamide]
20 | 0.001 | 0.001 | O=C(NC/C(F)=C1\CCCc2cnn(Cc3ccc(Cl)cc3Cl)c21)NS(=O)(=O)c1cc(Cl)c(Cl)s1 [Compound #40, (Z)-4,5-dichloro-N-((2-(1-(2,4-dichlorobenzyl)-1,4,5,6-tetrahydro-7H-indazol-7-ylidene)-2-fluoroethyl)carbamoyl)thiophene-2-sulfonamide]
21 | 0.006 | 0.009 | COc1ccc(Br)cc1S(=O)(=O)NC(=O)CC/C=C1\CCCc2cnn(Cc3ccc(Cl)cc3Cl)c21 [Compound #41, (E)-N-((5-bromo-2-methoxyphenyl)sulfonyl)-4-(1-(2,4-dichlorobenzyl)-1,4,5,6-tetrahydro-7H-indazol-7-ylidene)butanamide]
22 | 0.003 | 0.006 | COc1ccc(Br)cc1S(=O)(=O)NC(=O)NC/C=C1\CCCc2cnn(Cc3ccc(Cl)cc3Cl)c21 [Compound #42, (E)-5-bromo-N-((2-(1-(2,4-dichlorobenzyl)-1,4,5,6-tetrahydro-7H-indazol-7-ylidene)ethyl)carbamoyl)-2-methoxybenzenesulfonamide]
